Experimental data taken from patent publication US5494913A, “Antifungal compounds” (Schering Corporation, priority 1994, dated 1996).
Values after ≈ are worked out from the molar mass of the structure shown.

Tests used:
In vivo LD50, iv = conditions: mpk means mg. per kg., range for compounds A and B, printed with "about"
Dermatophytes = assay: In vitro antifungal MIC in SDB (pH 5.7), dermatophytes; type: cell-based; conditions: 5 strains; for MIC: 48/72 hr, read-out: Geometric means MICs, 48/72 hr
Protocol: (§1) Compounds A and B of the invention were tested in standard antifungal assays and data from these tests appear in the Table 13 just below.
(§2) In vitro activity of compounds
(§3) A and B and Albofungin against various fungi
(§4) Geometric means MICs μg/ml, 48/72 hr)
(§5) SDB means Sabourand dextrose broth, pH 5.7;

[1] = tested on: C. albicans & C. tropicalis; assay: In vitro antifungal MIC in SDB (pH 5.7), C. albicans & C. tropicalis; type: cell-based; conditions: 8 strains; for MIC: 48/72 hr, read-out: Geometric means MICs, 48/72 hr
Protocol: as §1, §2, §3, §4, §5

Aspergillus = assay: In vitro antifungal MIC in SDB (pH 5.7), Aspergillus; type: cell-based; conditions: 3 strains; for MIC: 48/72 hr, read-out: Geometric means MICs, 48/72 hr
Protocol: as §1, §2, §3, §4, §5

[2] = tested on: C. albicans & C. tropicalis; assay: In vitro antifungal MIC in EMEM (pH 7.0), C. albicans & C. tropicalis; type: cell-based; conditions: 9 strains; for MIC: 48/72 hr, read-out: Geometric means MICs, 48/72 hr
Protocol: as §1, §2, §3, §4
EMEM means Eagle's minimum essential medium, pH 7.0.

Other Candida = assay: In vitro antifungal MIC in SDB (pH 5.7), other Candida; type: cell-based; conditions: 6 strains; for MIC: 48/72 hr, read-out: Geometric means MICs, 48/72 hr
Protocol: as §1, §2, §3, §4, §5

[3] = tested on: various yeasts and dermatophytes; assay: Antifungal MIC against various yeasts and dermatophytes (summary statement); type: cell-based; conditions: read-out: MIC values
Protocol: as §1

Compound	LD50 (In vivo LD50, iv) [mg/kg]	MIC (Dermatophytes) [µg/mL]	MIC [1] [µg/mL]	MIC (Aspergillus) [µg/mL]	MIC [2] [µg/mL]	MIC (Other Candida) [µg/mL]	Geometric means MICs, 48/72 hr (Dermatophytes) [µg/mL]	Geometric means MICs, 48/72 hr [1] [µg/mL]	Geometric means MICs, 48/72 hr (Aspergillus) [µg/mL]	Geometric means MICs, 48/72 hr [2] [µg/mL]	Geometric means MICs, 48/72 hr (Other Candida) [µg/mL]	MIC [3] [µg/mL]
CCC(C)c1cc2cc3c(c(O)c2c(=O)n1C)-c1c(O)c2c(c(OC)c1CC3)O[C@H]1[C@@H](C2=O)[C@@H](O)C=C[C@H]1O (stereo partly drawn) [Compound B]	1 to 25	0.144 (≈ 0.269 µM)	0.017 (≈ 0.0319 µM)	0.794 (≈ 1.49 µM)	< 0.135	0.0312 (≈ 0.0585 µM)						
Albofungin [reference compound]							0.0359	< 0.00055	0.125	< 0.0182	< 0.00099	
CCC(C)c1cc2c(Cl)c3c(c(O)c2c(=O)n1N)-c1c(O)c2c(c4c1C(C3)OCO4)OC1C(OC)C=CC(O)C1C2=O (stereo not drawn) [Compound A]	1 to 25	0.00764 (≈ 0.0128 µM)	< 0.000386	0.0248 (≈ 0.0415 µM)	< 2.16	< 0.00128						≤ 0.000386
